# Values of other authors in US6184255A, “Pharmaceutical composition comprising coenzyme Q10” (Kaneka Corporation, priority 1996, dated 2001).
# Settings: oral, considerably greater amount than actually needed
structure (smiles),measurement,value
COC1=C(OC)C(=O)C(C/C=C(\C)CC/C=C(\C)CC/C=C(\C)CC/C=C(\C)CC/C=C(\C)CC/C=C(\C)CC/C=C(\C)CC/C=C(\C)CC/C=C(\C)CCC=C(C)C)=C(C)C1=O [Coenzyme Q10],adverse gastrointestinal reactions,"adverse gastrointestinal reactions such as epigastric discomfort, anorexia, nausea, and diarrheas"
